Laboratory results published in patent US7365069B2, “Pyrimidone derivatives” (Bexel Pharmaceuticals Inc., priority 2002, dated 2008).

Assays:
[1] = system: TNF-α; assay: TNF-α production in LPS-stimulated human whole blood; type: cell-based; conditions: LPS 4 h
Protocol: Tumor Necrosis Factor Alpha (TNF-α)
This assay determines the effect of test compounds on the production of TNF-α in human whole blood. TNF-α assay is carried out as described by Armin hatzelmann and Christian Schudt (J Pharm Exp Ther 297, 261, 2001). Compounds are tested for their ability to inhibit the activity of TNF-α in human whole blood. The test compounds are pre-incubated for 15 minutes at 37° C. and then stimulated with Lipopolysaccharide (Salmonella abortus equi, 1 μg/ml) for 4 h at 37° C. in 5% CO2. The levels of TNF-α are estimated using Enzyme linked Immunosorbent assay performed in a 96 well format as per the procedure of the manufacturer (Cayman Chemical, Ann Arbor, USA).

[2] = biological target: T1, COX-2 (Homo sapiens, UniProt P35354); assay: Human whole blood assay, COX-2 inhibition (PGE2 ELISA after LPS); type: cell-based; conditions: 0.25 μM, LPS 24 h
T1 construct: incubation of human blood with lipopolysaccharide (LPS), which induces COX-2 production in the blood; endogenous in cells; host or cells: fresh human whole blood from volunteers, treated with aspirin and then LPS
T1 sequence (P35354 18-604): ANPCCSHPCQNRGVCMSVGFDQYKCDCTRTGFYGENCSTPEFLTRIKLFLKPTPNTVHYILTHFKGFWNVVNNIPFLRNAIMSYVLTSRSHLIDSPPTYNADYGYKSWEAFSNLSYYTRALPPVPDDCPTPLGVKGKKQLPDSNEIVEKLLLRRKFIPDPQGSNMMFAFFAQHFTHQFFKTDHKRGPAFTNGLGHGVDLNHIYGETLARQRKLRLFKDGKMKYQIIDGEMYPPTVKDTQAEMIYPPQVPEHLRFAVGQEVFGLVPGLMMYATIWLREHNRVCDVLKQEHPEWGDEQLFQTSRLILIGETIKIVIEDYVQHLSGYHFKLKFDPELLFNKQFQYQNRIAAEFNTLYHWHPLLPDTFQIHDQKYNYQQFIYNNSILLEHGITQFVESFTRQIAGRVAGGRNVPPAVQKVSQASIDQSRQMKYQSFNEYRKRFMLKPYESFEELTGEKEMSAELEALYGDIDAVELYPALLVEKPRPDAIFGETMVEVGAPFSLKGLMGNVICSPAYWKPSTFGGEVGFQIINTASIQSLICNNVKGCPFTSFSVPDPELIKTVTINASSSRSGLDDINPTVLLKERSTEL
Protocol: In Vivo Evaluation of Cyclooxygenase-2 (COX-2) Inhibition Activity
The COX-2 inhibition activities of the compounds illustrated in the examples are determined by the following method.
Human whole blood provides a protein and cell rich milieu appropriate for the study of biochemical efficacy of anti-inflammatory compounds such as selective COX-2 inhibitors. […] This is correlating with the observation that COX-2 inhibitors have no effect on prostaglandin E2 (PGE2) production in normal blood. These inhibitors are active only after incubation of human blood with lipopolysaccharide (LPS), which induces COX-2 production in the blood.
Fresh blood is collected in tubes containing potassium EDTA by vein puncture from make volunteers. The subjects should have no apparent inflammatory conditions and not taken NSAIDs for at least 7 days prior to blood collection. Blood is treated with aspirin in vitro (10 μg/ml, at time zero) to inactivate COX-1, and then with LPS (10 μg/ml) along with test agents or vehicle. The blood is incubated for 24 h at 37° C., after which the tubes are centrifuged, the plasma is separated and stored at −80° C. (J. Pharmacol. Exp. Ther, 271, 1705, 1994; Proc. Natl. Acad. Sci. USA., 96, 7563, 1999). The plasma is assayed for PGE2 using Cayman ELISA kit as per the procedure outlined by the manufacturer (Cayman Chemicals, Ann Arbor, USA).

melting point | Structure (SMILES) | also measured
218 to 223 °C | CSc1nc(-c2ccccn2)n(-c2ccc(C)c(C)c2)c(=O)c1C#N [Example 32, 5-cyano-4-(methylthio)-1-(3,4-dimethylphenyl)-6-oxo-2-pyridin-2-yl-1,6-dihydropyrimidine] | inhibition at 0.1 µM [1]: 17.9%
237 to 241 °C | CS(=O)(=O)c1ccc(-n2c(-c3ccc(F)cc3)nc(S(C)(=O)=O)c(C(N)=O)c2=O)cc1 [Example 48, 5-carboxamido-2-(4-fluorophenyl)-4-(methylsulfonyl)-1-[4-(methylsulfonyl)phenyl]-6-oxo-1,6-dihydropyrimidine] | –
246 to 253 °C | COc1ccc(-n2c(-c3ccccn3)nc(SC)c(C#N)c2=O)cc1 [Example 31, 5-cyano-4-(methylthio)-1-(4-methoxyphenyl)-6-oxo-2-pyridin-2-yl-1,6-dihydropyrimidine] | inhibition at 0.1 µM [1]: 20.2%
226 to 228 °C | Cc1ccc(-n2c(-c3ccc(S(C)(=O)=O)cc3)nc(N3CCOCC3)c(C(N)=O)c2=O)cc1 [Example 47, 5-carboxamido-1-(4-methylphenyl)-2-[4-(methylsulfonyl)phenyl]-4-morpholin-4-yl-6-oxo-1,6-dihydropyrimidine] | –
203 to 205 °C | CSc1ccc(-c2nc(SC)c(C#N)c(=O)n2-c2ccc(C)cc2C)cc1 [Example 19, 5-cyano-1-(2,4-dimethylphenyl)-4-(methylthio)-2-[4-(methylthio)phenyl]-6-oxo-1,6-dihydropyrimidine] | –
192 to 195 °C | COc1cc(-n2c(-c3ccc(SC)cc3)nc(SC)c(C#N)c2=O)cc(OC)c1OC [Example 13, 5-cyano-1-(3,4,5-trimethoxyphenyl)-4-(methylthio)-2-[4-(methylthio)phenyl]-6-oxo-1,6-dihydropyrimidine] | inhibition at 0.25 µM [2]: 33.5%
258 to 260 °C | CSc1nc(-c2ccccc2)n(-c2ccc(C)cc2)c(=O)c1C#N [Example 23, 5-cyano-1-(4-methylphenyl)-4-(methylthio)-6-oxo-2-phenyl-1,6-dihydropyrimidine] | –
260 to 262 °C | Cc1ccc(-n2c(-c3ccc(S(C)(=O)=O)cc3)nc(S(C)(=O)=O)c(C(N)=O)c2=O)cc1 [Example 44, 5-carboxamido-1-(4-methylphenyl)-4-(methylsulfonyl)-2-[4-(methylsulfonyl)phenyl]-6-oxo-1,6-dihydropyrimidine] | –
207 to 209 °C | CCc1ccc(-n2c(-c3cccnc3)nc(SC)c(C#N)c2=O)cc1 [Example 38, 5-cyano-4-(methylthio)-1-(4-ethylphenyl)-6-oxo-2-pyridin-3-yl-1,6-dihydropyrimidine] | –
230 to 233 °C | COc1ccc(-n2c(-c3cccnc3)nc(SC)c(C#N)c2=O)cc1 [Example 40, 5-cyano-4-(methylthio)-1-(4-methoxyphenyl)-6-oxo-2-pyridin-3-yl-1,6-dihydropyrimidine] | –
201 to 204 °C | CCOc1ccc(-n2c(-c3ccncc3)nc(SC)c(C#N)c2=O)cc1 [Example 35, 5-cyano-4-(methylthio)-1-(4-ethoxyphenyl)-6-oxo-2-pyridin-4-yl-1,6-dihydropyrimidine] | –
> 250 °C | CSc1nc(-c2cccnc2)n(-c2ccc(C)c(C)c2)c(=O)c1C#N [Example 39, 5-cyano-4-(methylthio)-1-(3,4-dimethylphenyl)-6-oxo-2-pyridin-3-yl-1,6-dihydropyrimidine] | –
223 to 225 °C | CCc1ccc(-n2c(-c3ccc(SC)cc3)nc(SC)c(C#N)c2=O)cc1 [Example 14, 5-cyano-1-(4-ethylphenyl)-4-(methylthio)-2-[4-(methylthio)phenyl]-6-oxo-1,6-dihydropyrimidine] | inhibition at 0.25 µM [2]: 28.2%
> 250 °C | CSc1nc(-c2ccncc2)n(-c2ccc(C)cc2)c(=O)c1C#N [Example 36, 5-cyano-4-(methylthio)-1-(4-methylphenyl)-6-oxo-2-pyridin-4-yl-1,6-dihydropyrimidine] | –
230 to 233 °C | CSc1ccc(-n2c(-c3ccc(C)cc3)nc(SC)c(C#N)c2=O)cc1 [Example 20, 5-cyano-2-(4-methylphenyl)-4-(methylthio)-1-[4-(methylthio)phenyl]-6-oxo-1,6-dihydropyrimidine] | inhibition at 1 µM [1]: 61.4%; inhibition at 0.25 µM [2]: 7.67%
138 to 141 °C | CCCCc1ccc(-n2c(-c3ccc(SC)cc3)nc(SC)c(C#N)c2=O)cc1 [Example 24, 1-(4-n-butylphenyl)-5-cyano-4-(methylthio)-2-[4-(methylthio)phenyl]-6-oxo-1,6-dihydropyrimidine] | –
245 to 248 °C | Cc1ccc(-n2c(-c3ccc(S(C)(=O)=O)cc3)nc(S(C)(=O)=O)c(C(N)=O)c2=O)cc1C [Example 51, 5-carboxamido-1-(3,4-dimethylphenyl)-4-(methylsulfonyl)-2-[4-(methylsulfonyl)phenyl]-6-oxo-1,6-dihydropyrimidine] | –
301 to 303 °C | CSc1nc(-c2ccncc2)n(-c2ccc(F)cc2)c(=O)c1C#N [Example 25, 5-cyano-1-(4-fluorophenyl)-4-(methylthio)-6-oxo-2-pyridin-4-yl-1,6-dihydropyrimidine] | inhibition at 1 µM [1]: 59.6%
213 to 215 °C | CSc1ccc(-c2nc(SC)c(C#N)c(=O)n2-c2ccc(Br)cc2)cc1 [Example 15, 1-(4-bromophenyl)-5-cyano-4-(methylthio)-2-[4-(methylthio)phenyl]-6-oxo-1,6-dihydropyrimidine] | inhibition at 0.1 µM [1]: 18.4%
247 to 248 °C | CSc1nc(-c2ccccn2)n(-c2ccc(C)cc2)c(=O)c1C#N [Example 34, 5-cyano-4-(methylthio)-1-(4-methylphenyl)-6-oxo-2-pyridin-2-yl-1,6-dihydropyrimidine] | –
> 285 °C | CS(=O)(=O)c1ccc(-n2c(-c3ccc(F)cc3)nc(O)c(C#N)c2=O)cc1 [Example 52, 5-cyano-2-(4-fluorophenyl)-4-hydroxy-1-[4-(methylsulfonyl)phenyl]-6-oxo-1,6-dihydropyrimidine] | –
269 to 275 °C | Cc1ccc(-n2c(-c3ccc(S(C)(=O)=O)cc3)nc(N3CCNCC3)c(C(N)=O)c2=O)cc1 [Example 45, 5-carboxamido-1-(4-methylphenyl)-2-[4-(methylsulfonyl)phenyl]-6-oxo-4-piperazin-1-yl-1,6-dihydropyrimidine] | –
> 300 °C | CNc1nc(-c2ccc(S(C)(=O)=O)cc2)n(-c2ccc(C)cc2)c(=O)c1C(N)=O [Example 46, 5-carboxamido-4-(methylamino)-1-(4-methylphenyl)-2-[4-(methylsulfonyl)phenyl]-6-oxo-1,6-dihydropyrimidine] | –
> 285 °C | Cc1ccc(-n2c(-c3ccc(S(C)(=O)=O)cc3)nc(O)c(C#N)c2=O)cc1C [Example 53, 5-cyano-1-(3,4-dimethylphenyl)-4-hydroxy-2-[4-(methylsulfonyl)phenyl]-6-oxo-1,6-dihydropyrimidine] | –
173 to 175 °C | CSc1nc(-c2ccncc2)n(-c2ccc(C(C)C)cc2)c(=O)c1C#N [Example 37, 5-cyano-4-(methylthio)-1-(4-isopropylphenyl)-6-oxo-2-pyridin-4-yl-1,6-dihydropyrimidine] | –
172 to 175 °C | CCc1ccc(-n2c(-c3ccccn3)nc(SC)c(C#N)c2=O)cc1 [Example 33, 5-cyano-4-(methylthio)-1-(4-ethylphenyl)-6-oxo-2-pyridin-2-yl-1,6-dihydropyrimidine] | –
